Source: US8324390B2, “Tetrazole-substituted anthranilamides as pesticides” (Bayer CropScience AG, priority 2008, dated 2012)
Like-named read-outs stand apart in the source and are kept apart here.

How the values were obtained:
[1] = log P determination by HPLC (EEC Directive 79/831 Annex V.A8); assay type: physicochemical
Method: The measurements were carried out using an Agilent 1100 LC system with a 50*4.6 Zorbax Eclipse C18 1.8 μm column (oven temperature 55° C., flow rate 2.0 ml/min).
The following mobile phases were used:
Mobile phase A: acetonitrile+1000 μl of formic acid/l
Mobile phase B: Millipore water+900 μl of formic acid/l

[2] = test system: caterpillars of the armyworm (Spodoptera frugiperda); assay: Spodoptera frugiperda test (SPODFR spray treatment); assay type: in vivo; conditions: Spodoptera frugiperda, foliar, read-out: effect in % (caterpillars killed)
Description: Solvent: 78.0 parts by weight of acetone

[3] = test system: larvae of the mustard beetle (Phaedon cochleariae); assay: Phaedon test (PHAECO spray treatment); conditions: Phaedon cochleariae, in Brassica rapa, foliar, read-out: effect in % (beetle larvae killed)
[4] = reversed-phase HPLC, Zorbax Eclipse C18 column, determined by HPLC according to EEC Directive 79/831 Annex V.A8, read-out: log P
[5] = application rate 100 g/ha, maize leaf discs
[6] = reversed-phase HPLC, Zorbax Eclipse C18 column, by HPLC according to EEC Directive 79/831 Annex V.A8, read-out: log P

Row | chromatographic logP [1, 4] | chromatographic logP [1, 6] | Compound | pest or weed control at 100 g/ha [2, 5] [%] | pest or weed control at 100 g/ha [3] [%] | chromatographic logP ([1]; log P) | pest or weed control at 100 g/ha ([2]; in Zea mays) [%] | chromatographic logP ([1]; by HPLC according to EEC Directive 79/831 Annex V.A8, read-out: log P)
1 | 3.91 |  | Cc1cc(C#N)cc(C(=O)NC(C)C)c1NC(=O)c1cc(Cn2nnc(C(F)(F)C(F)(F)F)n2)nn1-c1ccccc1Cl [Example 539] | ≥ 80 | ≥ 80 |  |  | 
2 |  | 4.42 | CC(NC(=O)c1cc(Cl)cc(Cl)c1NC(=O)c1cc(Cn2nnc(C(F)(C(F)(F)F)C(F)(F)F)n2)nn1-c1ncccc1Cl)C1CC1 (stereo not drawn) [Example 387] | ≥ 80 | ≥ 80 |  |  | 
3 |  | 3.97 | CNC(=O)c1cc(Cl)cc(C)c1NC(=O)c1cc(Cn2nnc(C(F)(F)F)n2)nn1-c1ccc(Cl)cc1Cl [Example 239] | ≥ 80 | ≥ 80 |  |  | 
4 | 2.91 |  | CNC(=O)c1cc(C#N)cc(C)c1NC(=O)c1cc(Cn2nnnc2C(F)(F)F)nn1-c1ccccc1C(F)(F)F [Example 490] | ≥ 80 | ≥ 80 |  |  | 
5 |  |  | O=C(NCC1CC1)c1cc(Cl)cc(Cl)c1NC(=O)c1cc(Cn2nnc(C(F)(F)C(F)(F)F)n2)nn1-c1ncccc1Cl [Example 156] |  | ≥ 80 | 3.88 | ≥ 80 | 
6 |  |  | CCNC(=O)c1cc(Br)cc(C)c1NC(=O)c1cc(Cn2nnc(C(F)(F)F)n2)nn1-c1ncccc1Cl [Example 34] |  | ≥ 80 | 3.32 | ≥ 80 | 
7 |  |  | C#CCNC(=O)c1cc(C#N)cc(C)c1NC(=O)c1cc(Cn2nnnc2C(F)(F)F)nn1-c1ncccc1Cl [Example 187] |  | ≥ 80 | 2.48 | ≥ 80 | 
8 |  |  | Cc1cc(Cl)cc(C(=O)NC(C)C2CC2)c1NC(=O)c1cc(Cn2nnc(C(F)F)n2)nn1-c1ncccc1Cl (stereo not drawn) [Example 256] |  | ≥ 80 | 3.24 | ≥ 80 | 
9 |  | 3.64 | Cc1cc(Cl)cc(C(=O)NC(C)C)c1NC(=O)c1cc(Cn2nnc(C(F)(F)F)n2)nn1-c1ncccc1C(F)(F)F [Example 227] | ≥ 80 | ≥ 80 |  |  | 
10 |  |  | Cc1cc(Cl)cc(C(=O)NC2CC2)c1NC(=O)c1cc(Cn2nnc(C(F)(F)C(F)(F)C(F)(F)F)n2)nn1-c1ncccc1Cl [Example 4] |  | ≥ 80 |  | ≥ 80 | 3.96
11 |  |  | CNC(=O)c1cc(C#N)cc(C)c1NC(=O)c1cc(Cn2nnc(C(C)(C)C)n2)nn1-c1ncccc1Cl [Example 101] |  | ≥ 80 | 2.62 | ≥ 80 | 
12 |  | 3.21 | Cc1cc(Br)cc(C(=O)NCC#N)c1NC(=O)c1cc(Cn2nnc(C(F)(F)F)n2)nn1-c1ncccc1C(F)(F)F [Example 248] | ≥ 80 | ≥ 80 |  |  | 
13 |  | 3.16 | Cc1cc(I)cc(C(N)=O)c1NC(=O)c1cc(Cn2nnc(C(F)(F)F)n2)nn1-c1ncccc1C(F)(F)F [Example 250] | ≥ 80 | ≥ 80 |  |  | 
14 |  |  | CSC[C@H](C)NC(=O)c1cc(C#N)cc(C)c1NC(=O)c1cc(Cn2nnc(C(F)(F)C(F)(F)F)n2)nn1-c1ncccc1Cl [Example 216] |  | ≥ 80 | 3.68 | ≥ 80 | 
15 |  |  | CSC[C@H](C)NC(=O)c1cc(Cl)cc(C)c1NC(=O)c1cc(Cn2nnc(C(F)F)n2)nn1-c1ncccc1Cl [Example 302] |  | ≥ 80 | 3.18 | ≥ 80 | 
16 |  |  | Cc1cc(C)c(NC(=O)c2cc(Cn3nnc(C(F)(F)F)n3)nn2-c2ncccc2Cl)c(C(=O)NC2CC2)c1 [Example 119] |  | ≥ 80 | 3.04 | ≥ 80 | 
17 |  | 3.79 | Cc1cc(C#N)cc(C(=O)NC(C)C)c1NC(=O)c1cc(Cn2nnc(C(F)(C(F)(F)F)C(F)(F)F)n2)nn1-c1ncccc1Cl [Example 370] | ≥ 80 | ≥ 80 |  |  | 
18 |  | 3.52 | CCNC(=O)c1cc(Br)cc(C)c1NC(=O)c1cc(Cn2nnc(C(F)(F)F)n2)nn1-c1ncccc1C(F)(F)F [Example 244] | ≥ 80 | ≥ 80 |  |  | 
19 |  |  | Cc1cc(Cl)cc(C(=O)NC2CC2)c1NC(=O)c1cc(Cn2nnc(C(F)(C(F)(F)F)C(F)(F)F)n2)nn1-c1ncccc1Cl [Example 365] |  | ≥ 80 | 3.94 | ≥ 80 | 
20 |  |  | Cc1cc(I)cc(C(=O)NC2CC2)c1NC(=O)c1cc(Cn2nnc(C(F)(C(F)(F)F)C(F)(F)F)n2)nn1-c1ncccc1Cl [Example 379] |  | ≥ 80 | 4.18 | ≥ 80 | 
